Assay results as given in patent EP1171107B1, “USE OF A PHARMACEUTICAL COMPOSITION IN THE MANUFACTURE OF A MEDICAMENT FOR THE TREATMENT OF PATHOLOGICAL CONDITIONS OF THE EYE CAUSED BY BACTERIA, VIRUSES, FUNGI, YEASTS AND PROTOZOA” (Dr. GERHARD MANN chem.-pharm. Fabrik GmbH, priority 1999, dated 2000).

Columns and labels:
Assay type in all cases: cell-based
H.influenzae = experiment: Quantitative germ count (re-isolation, surface method) after inoculating the test preparation; details: Ausgangskeimzahl 2,8 x 10^5 KBE/ml
Summary of the method: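 Surviving germs were counted by the surface method: an aliquot was spiral-plated on Kochblut-Agar and incubated at 33±2°C for max. 4 Tage, giving re-isolated counts in KBE/ml with a detection limit of 100 KBE/ml. Initial germ counts were also set by spiral-plater surface plating. The H. influenzae strain was pretested biochemically for identity and purity.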

S.aureus [1] = experiment: as above; details: Ausgangskeimzahl 2,6 x 10^5 KBE/ml
Summary of the method: (§1)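 Test preparations (5 ml) inoculated with ca. 10^5 CFU/ml of each strain, one tube per time point. After 2, 6, 8, 24, 32, 48 and 72 h, cells pelleted, washed and resuspended in NaCl-peptone buffer, then spiral-plated on Caso agar and incubated at 33±2 °C up to 4 days. Detection limit 100 CFU/ml.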

E.coli [2] = experiment: as above; details: Ausgangskeimzahl 2,7 x 10^5 KBE/ml
Sc. pneumoniae [3] = experiment: as above; details: Ausgangskeimzahl 3,7 x 10^5 KBE/ml
Summary of the method: as §1

S.epidermidis [4] = experiment: Qualitative examination: enrichment of the inoculated test preparation in broth
Summary of the method: (§2)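 Growth/no growth after broth enrichment read out; negative enrichment taken as elimination of inoculum. Inoculum ca. 10^5 CFU/ml in 5 ml test substance, contact 2–72 h, then centrifugation wash in NaCl-peptone buffer, 2 ml into 20 ml Caso broth or Fildes medium, ≤4 d, 33±2°C.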

S.aureus [5] = experiment: as above
Summary of the method: as §2

E.coli [6] = experiment: as above
Summary of the method: as §2

Sc. pneumoniae [7] = experiment: as above
Summary of the method: as §2

S.epidermidis [8] = experiment: Quantitative germ count (re-isolation, surface method) after inoculating the test preparation; details: Ausgangskeimzahl 2,1 x 10^5 KBE/ml
Summary of the method: as §1

P.aeruginosa [9] = experiment: as above; details: Ausgangskeimzahl 2,7 x 10^5 KBE/ml
Summary of the method: as §1

P.aeruginosa [10] = experiment: Qualitative examination: enrichment of the inoculated test preparation in broth
Summary of the method: as §2

Benzalkoniumchlorid [Benzalkoniumchlorid 0,001 Gew.-%]
Ergebnis der Reisolierung (in KBE/ml) (H.influenzae; 2 h after inoculation): <100 KBE/ml
Ergebnis der Reisolierung (in KBE/ml) (H.influenzae; 4 h after inoculation): <100 KBE/ml
Ergebnis der Reisolierung (in KBE/ml) (H.influenzae; 6 h after inoculation): <100 KBE/ml
Ergebnis der Reisolierung (in KBE/ml) (H.influenzae; 8 h after inoculation): <100 KBE/ml
Ergebnis der Reisolierung (in KBE/ml) (H.influenzae; 24 h after inoculation): <100 KBE/ml
Ergebnis der Reisolierung (in KBE/ml) (H.influenzae; 32 h after inoculation): <100 KBE/ml
Ergebnis der Reisolierung (in KBE/ml) (H.influenzae; 48 h after inoculation): <100 KBE/ml
Ergebnis der Reisolierung (in KBE/ml) (H.influenzae; 72 h after inoculation): <100 KBE/ml
Ergebnis der Reisolierung (in KBE/ml) (S.aureus [1]; 2 h after inoculation): <100 KBE/ml
Ergebnis der Reisolierung (in KBE/ml) (S.aureus [1]; 4 h after inoculation): <100 KBE/ml
Ergebnis der Reisolierung (in KBE/ml) (S.aureus [1]; 6 h after inoculation): <100 KBE/ml
Ergebnis der Reisolierung (in KBE/ml) (S.aureus [1]; 8 h after inoculation): <100 KBE/ml
Ergebnis der Reisolierung (in KBE/ml) (S.aureus [1]; 24 h after inoculation): <100 KBE/ml
Ergebnis der Reisolierung (in KBE/ml) (S.aureus [1]; 32 h after inoculation): <100 KBE/ml
Ergebnis der Reisolierung (in KBE/ml) (S.aureus [1]; 48 h after inoculation): <100 KBE/ml
Ergebnis der Reisolierung (in KBE/ml) (S.aureus [1]; 72 h after inoculation): <100 KBE/ml
Ergebnis der Reisolierung (in KBE/ml) (E.coli [2]; 2 h after inoculation): <100 KBE/ml
Ergebnis der Reisolierung (in KBE/ml) (E.coli [2]; 4 h after inoculation): <100 KBE/ml
Ergebnis der Reisolierung (in KBE/ml) (E.coli [2]; 6 h after inoculation): <100 KBE/ml
Ergebnis der Reisolierung (in KBE/ml) (E.coli [2]; 8 h after inoculation): <100 KBE/ml
Ergebnis der Reisolierung (in KBE/ml) (E.coli [2]; 24 h after inoculation): <100 KBE/ml
Ergebnis der Reisolierung (in KBE/ml) (E.coli [2]; 32 h after inoculation): <100 KBE/ml
Ergebnis der Reisolierung (in KBE/ml) (E.coli [2]; 48 h after inoculation): <100 KBE/ml
Ergebnis der Reisolierung (in KBE/ml) (E.coli [2]; 72 h after inoculation): <100 KBE/ml
Ergebnis der Reisolierung (in KBE/ml) (Sc. pneumoniae [3]; 2 h after inoculation): <100 KBE/ml
Ergebnis der Reisolierung (in KBE/ml) (Sc. pneumoniae [3]; 4 h after inoculation): <100 KBE/ml
Ergebnis der Reisolierung (in KBE/ml) (Sc. pneumoniae [3]; 6 h after inoculation): <100 KBE/ml
Ergebnis der Reisolierung (in KBE/ml) (Sc. pneumoniae [3]; 8 h after inoculation): <100 KBE/ml
Ergebnis der Reisolierung (in KBE/ml) (Sc. pneumoniae [3]; 24 h after inoculation): <100 KBE/ml
Ergebnis der Reisolierung (in KBE/ml) (Sc. pneumoniae [3]; 32 h after inoculation): <100 KBE/ml
Ergebnis der Reisolierung (in KBE/ml) (Sc. pneumoniae [3]; 48 h after inoculation): <100 KBE/ml
Ergebnis der Reisolierung (in KBE/ml) (Sc. pneumoniae [3]; 72 h after inoculation): <100 KBE/ml
Ergebnis der Reisolierung qualitiativ (+/-) nach Anreicherung (S.epidermidis [4]; 2 h after inoculation): -
Ergebnis der Reisolierung qualitiativ (+/-) nach Anreicherung (S.epidermidis [4]; 4 h after inoculation): -
Ergebnis der Reisolierung qualitiativ (+/-) nach Anreicherung (S.epidermidis [4]; 6 h after inoculation): -
Ergebnis der Reisolierung qualitiativ (+/-) nach Anreicherung (S.epidermidis [4]; 8 h after inoculation): -
Ergebnis der Reisolierung qualitiativ (+/-) nach Anreicherung (S.epidermidis [4]; 24 h after inoculation): -
Ergebnis der Reisolierung qualitiativ (+/-) nach Anreicherung (S.epidermidis [4]; 32 h after inoculation): -
Ergebnis der Reisolierung qualitiativ (+/-) nach Anreicherung (S.epidermidis [4]; 48 h after inoculation): -
Ergebnis der Reisolierung qualitiativ (+/-) nach Anreicherung (S.epidermidis [4]; 72 h after inoculation): -
Ergebnis der Reisolierung qualitiativ (+/-) nach Anreicherung (S.aureus [5]; 2 h after inoculation): -
Ergebnis der Reisolierung qualitiativ (+/-) nach Anreicherung (S.aureus [5]; 4 h after inoculation): -
Ergebnis der Reisolierung qualitiativ (+/-) nach Anreicherung (S.aureus [5]; 6 h after inoculation): -
Ergebnis der Reisolierung qualitiativ (+/-) nach Anreicherung (S.aureus [5]; 8 h after inoculation): -
Ergebnis der Reisolierung qualitiativ (+/-) nach Anreicherung (S.aureus [5]; 24 h after inoculation): -
Ergebnis der Reisolierung qualitiativ (+/-) nach Anreicherung (S.aureus [5]; 32 h after inoculation): -
Ergebnis der Reisolierung qualitiativ (+/-) nach Anreicherung (S.aureus [5]; 48 h after inoculation): -
Ergebnis der Reisolierung qualitiativ (+/-) nach Anreicherung (S.aureus [5]; 72 h after inoculation): -
Ergebnis der Reisolierung qualitiativ (+/-) nach Anreicherung (E.coli [6]; 2 h after inoculation): -
Ergebnis der Reisolierung qualitiativ (+/-) nach Anreicherung (E.coli [6]; 4 h after inoculation): -
Ergebnis der Reisolierung qualitiativ (+/-) nach Anreicherung (E.coli [6]; 6 h after inoculation): -
Ergebnis der Reisolierung qualitiativ (+/-) nach Anreicherung (E.coli [6]; 8 h after inoculation): -
Ergebnis der Reisolierung qualitiativ (+/-) nach Anreicherung (E.coli [6]; 24 h after inoculation): -
Ergebnis der Reisolierung qualitiativ (+/-) nach Anreicherung (E.coli [6]; 32 h after inoculation): -
Ergebnis der Reisolierung qualitiativ (+/-) nach Anreicherung (E.coli [6]; 48 h after inoculation): -
Ergebnis der Reisolierung qualitiativ (+/-) nach Anreicherung (E.coli [6]; 72 h after inoculation): -
Ergebnis der Reisolierung qualitiativ (+/-) nach Anreicherung (Sc. pneumoniae [7]; 2 h after inoculation): -
Ergebnis der Reisolierung qualitiativ (+/-) nach Anreicherung (Sc. pneumoniae [7]; 4 h after inoculation): -
Ergebnis der Reisolierung qualitiativ (+/-) nach Anreicherung (Sc. pneumoniae [7]; 6 h after inoculation): -
Ergebnis der Reisolierung qualitiativ (+/-) nach Anreicherung (Sc. pneumoniae [7]; 8 h after inoculation): -
Ergebnis der Reisolierung qualitiativ (+/-) nach Anreicherung (Sc. pneumoniae [7]; 24 h after inoculation): -
Ergebnis der Reisolierung qualitiativ (+/-) nach Anreicherung (Sc. pneumoniae [7]; 32 h after inoculation): -
Ergebnis der Reisolierung qualitiativ (+/-) nach Anreicherung (Sc. pneumoniae [7]; 48 h after inoculation): -
Ergebnis der Reisolierung qualitiativ (+/-) nach Anreicherung (Sc. pneumoniae [7]; 72 h after inoculation): -
Ergebnis der Reisolierung (in KBE/ml) (S.epidermidis [8]; 2 h after inoculation): <100 KBE/ml
Ergebnis der Reisolierung (in KBE/ml) (S.epidermidis [8]; 4 h after inoculation): <100 KBE/ml
Ergebnis der Reisolierung (in KBE/ml) (S.epidermidis [8]; 6 h after inoculation): <100 KBE/ml
Ergebnis der Reisolierung (in KBE/ml) (S.epidermidis [8]; 8 h after inoculation): <100 KBE/ml
Ergebnis der Reisolierung (in KBE/ml) (S.epidermidis [8]; 24 h after inoculation): <100 KBE/ml
Ergebnis der Reisolierung (in KBE/ml) (S.epidermidis [8]; 32 h after inoculation): <100 KBE/ml
Ergebnis der Reisolierung (in KBE/ml) (S.epidermidis [8]; 48 h after inoculation): <100 KBE/ml
Ergebnis der Reisolierung (in KBE/ml) (S.epidermidis [8]; 72 h after inoculation): <100 KBE/ml
Ergebnis der Reisolierung (in KBE/ml) (P.aeruginosa [9]; 2 h after inoculation): <100 KBE/ml
Ergebnis der Reisolierung (in KBE/ml) (P.aeruginosa [9]; 4 h after inoculation): <100 KBE/ml
Ergebnis der Reisolierung (in KBE/ml) (P.aeruginosa [9]; 6 h after inoculation): <100 KBE/ml
Ergebnis der Reisolierung (in KBE/ml) (P.aeruginosa [9]; 8 h after inoculation): <100 KBE/ml
Ergebnis der Reisolierung (in KBE/ml) (P.aeruginosa [9]; 24 h after inoculation): <100 KBE/ml
Ergebnis der Reisolierung (in KBE/ml) (P.aeruginosa [9]; 32 h after inoculation): <100 KBE/ml
Ergebnis der Reisolierung (in KBE/ml) (P.aeruginosa [9]; 48 h after inoculation): <100 KBE/ml
Ergebnis der Reisolierung (in KBE/ml) (P.aeruginosa [9]; 72 h after inoculation): <100 KBE/ml
Ergebnis der Reisolierung qualitiativ (+/-) nach Anreicherung (P.aeruginosa [10]; 2 h after inoculation): -
Ergebnis der Reisolierung qualitiativ (+/-) nach Anreicherung (P.aeruginosa [10]; 4 h after inoculation): -
Ergebnis der Reisolierung qualitiativ (+/-) nach Anreicherung (P.aeruginosa [10]; 6 h after inoculation): -
Ergebnis der Reisolierung qualitiativ (+/-) nach Anreicherung (P.aeruginosa [10]; 8 h after inoculation): -
Ergebnis der Reisolierung qualitiativ (+/-) nach Anreicherung (P.aeruginosa [10]; 24 h after inoculation): -
Ergebnis der Reisolierung qualitiativ (+/-) nach Anreicherung (P.aeruginosa [10]; 32 h after inoculation): -
Ergebnis der Reisolierung qualitiativ (+/-) nach Anreicherung (P.aeruginosa [10]; 48 h after inoculation): -
Ergebnis der Reisolierung qualitiativ (+/-) nach Anreicherung (P.aeruginosa [10]; 72 h after inoculation): -
